Experimental findings from PMC9182199, “Borylated 2,3,4,5-Tetrachlorophthalimide and Their 2,3,4,5-Tetrachlorobenzamide Analogues: Synthesis, Their Glycosidase Inhibition and Anticancer Properties in View to Boron Neutron Capture Therapy” (Molecules, 2022) are described below.

For orientation: inhibition means the share of the control response that was lost under treatment. One may read the % inhibition as the drop in the measured response relative to a control, in per cent.

For test [1], the system named is MIA-Pa-Ca2. The test can be described thus: MTT cell growth inhibition: MIA-Pa-Ca2. The format is cell-based. The note with it: 72 h; for inhibition at 25 µM: Homo sapiens, MIA PaCa-2, MIA-Pa-Ca2 pancreatic carcinoma, read-out: Percentage (%) Cell Growth Inhibition in response to 25 µM of Drug. How it is done:
(§1) All test agents were prepared as stock solutions (20 mM) in dimethyl sulfoxide (DMSO) and stored at −20 °C. Cell lines used in the study included HT29 (colorectal carcinoma); U87, SJ-G2, (glioblastoma); MCF-7, (breast carcinoma); A2780 (ovarian carcinoma); H460 (lung carcinoma); A431 (skin carcinoma); Du145 (prostate carcinoma); BE2-C (neuroblastoma); MiaPaCa-2 (pancreatic carcinoma); and SMA560 (spontaneous murine astrocytoma), together with the one non-tumour-derived normal breast cell line (MCF10A). All cell lines were incubated in a humidified atmosphere 5% CO2 at 37 °C. The cancer cell lines were maintained in Dulbecco’s modified Eagle’s medium (DMEM; Sigma, Australia) supplemented with foetal bovine serum (10%), sodium pyruvate (10 mM), penicillin (100 IUmL^−1), streptomycin (100 µg mL^−1) and L-glutamine (2 mM).
(§2) Growth inhibition was determined by plating cells in duplicate in medium (100 µL) at a density of 2500–4000 cells per well in 96-well plates. On day 0 (24 h after plating), when the cells were in logarithmic growth, medium (100 µL) with or without the test agent was added to each well. After 72 h drug exposure, growth inhibitory effects were evaluated using the MTT (3-(4,5-dimethyltiazol-2-yl)-2,5-diphenyltetrazolium bromide) assay and absorbance read at 540 nm. The percentage growth inhibition was calculated at a fixed concentration of 25 µM, based on the difference between the optical density values on day 0 and those at the end of drug exposure. Each data point is the mean ± the standard error of the mean (SEM) calculated from three replicates which were performed on separate occasions and separate cell line passages.

Test [2] has as its system Bacillus α-glucosidase. The test can be described thus: Glycosidase inhibition, laboratory 2: Bacillus α-glucosidase. The format is biochemical. Conditions: water. How it is done:
(§3) All enzymes and para-nitrophenyl substrates were purchased from Sigma. Enzymes were assayed at 27 °C in 0.1 M citric acid/0.2 M disodium hydrogen phosphate buffers at the optimum pH for the enzyme. The incubation mixture consisted of 10 μL enzyme solution, 10 μL of 1 mg/mL aqueous solution of extract and 50 μL of the appropriate 5 mM para-nitrophenyl substrate made up in buffer at the optimum pH for the enzyme. The reactions were stopped by addition of 70 μL 0.4 M glycine (pH 10.4) during the exponential phase of the reaction, which had been determined at the beginning using uninhibited assays in which water replaced inhibitor. Final absorbances were read at 405 nm using a Versamax microplate reader (Molecular Devices). Assays were carried out in triplicate, and the values given are means of the three replicates per assay. All reactions run in water.

Test [3] has as its system U87. The test can be described thus: MTT cell growth inhibition: U87. The format is cell-based. The note with it: U87 glioblastoma; for inhibition at 25 µM / GI50: Homo sapiens, U-87 MG; for inhibition at 25 µM: read-out: Percentage (%) Cell Growth Inhibition in response to 25 µM of Drug; for GI50: read-out: GI50 = Concentration (µM) that inhibits cell growth by 50%, dose response. The method, then: as §1, §2

Test [4] has as its system Penicillium decumbens α-L-rhamnosidase. The test can be described thus: Glycosidase inhibition, laboratory 1: α-L-rhamnosidase. The format is biochemical. The note with it: methanol. The source says:
(§4) The enzymes α-glucosidase (from yeast), β-glucosidases (from almond and bovine liver), α-galactosidase (from coffee beans), β-galactosidase (from bovine liver), α-mannosidase (from Jack bean), β-mannosidase (from snail), α-L-rhamnosidase (from Penicillium decumbens), α-L-fucosidase (from bovine kidney), trehalase (from porcine kidney), β-glucuronidases (from E. coli and bovine liver), amyloglucosidase (from A. niger), para-nitrophenyl glycosides, and various disaccharides were purchased from Sigma-Aldrich Co (St Louis, MO, USA).
(§5) Brush border membranes were prepared from the rat small intestine according to the method of Kessler et al. and were assayed at pH 6.8 for rat intestinal maltase using maltose. For rat intestinal maltase, porcine kidney trehalase, and A. niger amyloglucosidase activities, the reaction mixture contained 25 mM maltose and the appropriate amount of enzyme, and the incubations were performed for 10–30 min at 37 °C. The reaction was stopped by heating at 100 °C for 3 min. After centrifugation (600× g; 10 min), the resulting reaction mixture was added to the Glucose CII-test Wako (Wako Pure Chemical Ind., Osaka, Japan). The absorbance at 505 nm was measured to determine the amount of the released D-glucose. Other glycosidase activities were determined using an appropriate para-nitrophenyl glycoside as substrate at the optimum pH of each enzyme. The reaction mixture contained 2 mM of the substrate and the appropriate amount of enzyme. The reaction was stopped by addition of 400 mM Na2CO3. The released para-nitrophenol was measured spectrometrically at 400 nm. All reactions run in methanol.

The subject of test [5] is MCF10A. Nature of the test: MTT cell growth inhibition: MCF10A normal breast. The format is cell-based. Conditions: 72 h; for inhibition at 25 µM: Homo sapiens, MCF-10A, read-out: Percentage (%) Cell Growth Inhibition in response to 25 µM of Drug. The method, then: as §1
The non-cancer MCF10A cell line was maintained in DMEM:F12 (1:1) cell culture media, 5% heat-inactivated horse serum, supplemented with penicillin (50 IUmL^−1), streptomycin (50 µg mL^−1), HEPES (20 mM), L-glutamine (2 mM), epidermal growth factor (20 ng mL^−1), hydrocortisone (500 ng mL^−1), cholera toxin (100 ng mL^−1) and insulin ([…]).
as §2

The test system of test [6] is bovine liver β-galactosidase. Nature of the test: Glycosidase inhibition, laboratory 1: bovine liver β-galactosidase. Conditions: methanol. The format is biochemical.
Excerpt: as §4, §5

Test [7] concerns bovine liver β-glucuronidase. Nature of the test: Glycosidase inhibition, laboratory 2: bovine liver β-glucuronidase. Conditions: water. The format is biochemical. The method, then:
as §3

In test [8] the test system is BE2-C. Nature of the test: MTT cell growth inhibition: BE2-C. The format is cell-based. The note with it: BE2-C neuroblastoma, 72 h; for inhibition at 25 µM: Homo sapiens, BE(2)-C, read-out: Percentage (%) Cell Growth Inhibition in response to 25 µM of Drug. How it is done:
as §1, §2

Test [9] deals with almond β-glucosidase. The test can be described thus: Glycosidase inhibition, laboratory 2: almond β-glucosidase. The format is biochemical. Conditions: water. How it is done: as §3
Test [10] has as its system MCF-7. Nature of the test: MTT cell growth inhibition: MCF-7. The format is cell-based. The note with it: MCF-7 breast carcinoma; for inhibition at 25 µM / GI50: Homo sapiens; for inhibition at 25 µM: MCF7, read-out: Percentage (%) Cell Growth Inhibition in response to 25 µM of Drug; for GI50: MCF7, read-out: GI50 = Concentration (µM) that inhibits cell growth by 50%, dose response. How it is done:
as §1, §2

The subject of test [11] is bovine liver β-glucuronidase. Nature of the test: Glycosidase inhibition, laboratory 1: bovine liver β-glucuronidase. The format is biochemical. The note with it: methanol.
Excerpt: as §4, §5

In test [12] the test system is SJ-G2. Nature of the test: MTT cell growth inhibition: SJ-G2. The format is cell-based. Conditions: SJ-G2 glioblastoma, 72 h; for inhibition at 25 µM: read-out: Percentage (%) Cell Growth Inhibition in response to 25 µM of Drug. The method, then: as §1, §2
Test [13] deals with A431. Nature of the test: MTT cell growth inhibition: A431. The format is cell-based. The note with it: A431 skin carcinoma; for inhibition at 25 µM / GI50: Homo sapiens; for inhibition at 25 µM: A-431, read-out: Percentage (%) Cell Growth Inhibition in response to 25 µM of Drug; for GI50: A-431, read-out: GI50 = Concentration (µM) that inhibits cell growth by 50%, dose response. How it is done:
as §1, §2

The target in test [14] is T1, yeast α-glucosidase (Saccharomyces cerevisiae, UniProt P53341).
T1 construct: purchased Sigma
T1 sequence (P53341 whole entry): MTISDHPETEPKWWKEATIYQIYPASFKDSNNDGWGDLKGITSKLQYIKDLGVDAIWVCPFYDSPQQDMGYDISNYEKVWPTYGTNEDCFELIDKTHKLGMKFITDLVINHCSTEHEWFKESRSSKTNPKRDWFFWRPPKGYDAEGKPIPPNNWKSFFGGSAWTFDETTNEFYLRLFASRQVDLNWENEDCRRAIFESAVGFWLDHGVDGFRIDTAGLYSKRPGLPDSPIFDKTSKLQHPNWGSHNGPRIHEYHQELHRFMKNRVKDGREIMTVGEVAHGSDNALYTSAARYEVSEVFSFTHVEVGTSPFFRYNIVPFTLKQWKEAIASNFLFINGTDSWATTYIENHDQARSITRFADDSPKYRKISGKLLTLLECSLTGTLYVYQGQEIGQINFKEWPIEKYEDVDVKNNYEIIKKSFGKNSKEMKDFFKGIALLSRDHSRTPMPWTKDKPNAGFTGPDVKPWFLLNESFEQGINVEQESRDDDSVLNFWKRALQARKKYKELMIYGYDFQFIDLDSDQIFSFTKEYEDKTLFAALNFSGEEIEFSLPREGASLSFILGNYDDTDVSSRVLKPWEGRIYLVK
The test can be described thus: Glycosidase inhibition, laboratory 2: yeast α-glucosidase. The format is biochemical. The note with it: for inhibition at 400 µM: read-out: % inhibition at ~400 μM, water. The method, then:
as §3

The test system of test [15] is bovine kidney N-acetyl-β-glucosaminidase. The test can be described thus: Glycosidase inhibition, laboratory 2: N-acetyl-β-glucosaminidase. Conditions: water. The format is biochemical. How it is done:
as §3

Test [16] deals with porcine kidney trehalase. Nature of the test: Glycosidase inhibition, laboratory 1: trehalase. The format is biochemical. Conditions: 100 μM, methanol.
Excerpt: as §4, §5

Consider `N[C@@H](Cc1ccc(B(O)O)cc1)C(=O)O` [BPA, 4-borono-L-phenylalanine, reference compound], for which the inhibition at 25 µM in [1] was 3 ± 3%; in [3] (25 µM, 72 h, MTT), under 0%; in test [5], 4 ± 1%; in test [8] it was 13 ± 10%; in test [10] (25 µM, 72 h, MTT) it was under 0%; in [12] it was 5 ± 8%. In [13] (25 µM, 72 h, MTT), the inhibition at 25 µM came out at 4 ± 6%. For the same compound, the “% inhibition at ~400 μM” value in test [2] (400 µM) is listed as 19.9%; in [7] (400 µM) it was −0.7%; in test [9] (400 µM), 3.9%; in [15] (400 µM) it was 6.7%. Moreover, the “inhibition % at 100 μM” value in test [4] is recorded as “^cNI ^d (0%)”; in [6] it was “^cNI ^d (10.9%)”; in test [11], “^cNI ^d (7.4%)”; in test [16], “^cNI ^d (0%)”. The inhibition at 400 µM in [14] stood at 2.9%.

`N[C@@H](Cc1ccc(B(O)O)cc1)C(=O)O` [^10B-BPA, reference compound]: the “Percentage (%) Cell Growth Inhibition in response to 25 µM of Drug” value in [1] (MIA-Pa-Ca2 pancreatic carcinoma) was 11 ± 3%; in test [3] (25 µM, 72 h, MTT), under 0%; in test [5] (MCF10A breast (normal), 25 µM, MTT), under 0%; in test [8] it was 10 ± 6%; in test [10] (25 µM, 72 h, MTT), 1 ± 3%; in test [12], 5 ± 10%. Besides, the “Percentage (%) Cell Growth Inhibition in response to 25 µM of Drug” value in test [13] (25 µM, 72 h, MTT) was found to be 4 ± 4%. Moreover, the “% inhibition at ~400 μM” value in test [2] (400 µM) was 19.5%; in test [7] (400 µM) it was −1%; in [9] (400 µM) it was 3%; in [14] (water), 3.4%; in [15] (400 µM), 6.3%. The “inhibition % at 100 μM” value in test [4], in [6], in [11] and in test [16] was “^cNI ^d (0%)” in each case.

With `CC1(C)OB(c2cccc(CN3C(=O)c4c(Cl)c(Cl)c(Cl)c(Cl)c4C3=O)c2)OC1(C)C` [meta 3, 4,5,6,7-Tetrachloro-2-(3-(4,4,5,5-tetramethyl-1,3,2-dioxaborolan-2-yl)benzyl)isoindoline-1,3-dione], the inhibition at 25 µM in test [1] worked out at 29 ± 2%; in test [3] (25 µM, 72 h, MTT) it was 70 ± 8%; in test [5], 69 ± 7%; in test [8], 45 ± 2%; in [10] (25 µM, 72 h, MTT), 67 ± 7%; in test [12], 35 ± 4%. Besides, the inhibition at 25 µM in test [13] (25 µM, 72 h, MTT) worked out at 48 ± 3%. In addition, the “% inhibition at ~400 μM” value in test [2] was determined as 31.7%; in [7] it was 5.8%; in [9], 19.3%; in test [15] it was 17.1%. Also, the GI50 in test [3] worked out at 19 ± 1.5 µM; in [10], 23 ± 3.7 µM; in test [13] it was 28 ± 0.85 µM. The “inhibition % at 10 μM” value in test [4] (10 μM) is reported as “^cNI ^d (0%)”; in [6] (10 μM), “^cNI ^d (12.4%)”; in [11] (10 μM), “^cNI ^d (5.7%)”. For the same compound, the inhibition at 400 µM in test [14] was 32.2%. In addition, in test [16], the “inhibition % at 100 μM” value is on record as “^aNI ^b (0%)”.

For `CC1(C)OB(c2ccc(CN3C(=O)c4c(Cl)c(Cl)c(Cl)c(Cl)c4C3=O)cc2)OC1(C)C` [para 3, 4,5,6,7-Tetrachloro-2-(4-(4,4,5,5-tetramethyl-1,3,2-dioxaborolan-2-yl)benzyl)isoindoline-1,3-dione], the inhibition at 25 µM was 98 ± 3% in test [1]; over 100% in [3] (25 µM, 72 h, MTT); over 100% in test [5]; over 100% in test [8]; over 100% in [10] (25 µM, 72 h, MTT); over 100% in test [12]. Moreover, in [13] (25 µM, 72 h, MTT), the inhibition at 25 µM was found to be 85 ± 8%. In addition, the “% inhibition at ~400 μM” value in test [2] worked out at 17.9%; in test [7], 2.1%; in test [9], 15.4%; in test [15], 8.3%. For the same compound, the values for the GI50 in test [3], in [10] and in [13] were 4.2 ± 1 µM, 3 ± 1.3 µM and 18 ± 2.3 µM, respectively. The “inhibition % at 100 μM” value in test [4] is on record as “^aNI ^b (0%)”; in test [11], “^aNI ^b (1.0%)”; in test [16] it was “^aNI ^b (0%)”. For the same compound, the inhibition at 400 µM in test [14] stood at 29.3%.
